Data from ChEMBL document CHEMBL5678812, “Inhibitors of p21-activated kinases (PAKs)” (J Med Chem, 2015).

Columns and labels:
[1] = molecular target: RAC-beta serine/threonine-protein kinase (Homo sapiens) (UniProt P31751); assay: Inhibition of AKT2 (unknown origin) at 0.1 uM relative to control
[2] = molecular target: Tyrosine-protein kinase receptor UFO (Homo sapiens) (UniProt P30530); assay: Inhibition of Axl (unknown origin) at 0.1 uM relative to control
[3] = molecular target: Casein kinase I isoform alpha (Homo sapiens) (UniProt P48729); assay: Inhibition of CK1alpha1 (unknown origin) at 0.1 uM relative to control
[4] = molecular target: Casein kinase I isoform epsilon (Homo sapiens) (UniProt P49674); assay: Inhibition of CK1epsilon (unknown origin) at 0.1 uM relative to control
Sequence of Casein kinase I isoform epsilon (Homo sapiens) (P49674 whole entry, looked up, canonical isoform): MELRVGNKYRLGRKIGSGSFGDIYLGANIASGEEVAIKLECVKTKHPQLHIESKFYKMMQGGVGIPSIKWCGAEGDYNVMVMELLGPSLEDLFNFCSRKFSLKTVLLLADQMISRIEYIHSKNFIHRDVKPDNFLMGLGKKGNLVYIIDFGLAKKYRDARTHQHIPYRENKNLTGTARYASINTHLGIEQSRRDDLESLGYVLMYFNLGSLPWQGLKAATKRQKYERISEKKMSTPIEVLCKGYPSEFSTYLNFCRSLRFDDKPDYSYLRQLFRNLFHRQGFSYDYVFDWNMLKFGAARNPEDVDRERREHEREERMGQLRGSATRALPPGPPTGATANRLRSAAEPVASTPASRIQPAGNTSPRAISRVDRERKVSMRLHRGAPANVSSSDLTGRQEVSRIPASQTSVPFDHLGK

[5] = molecular target: Calcium/calmodulin-dependent protein kinase type II subunit beta (Homo sapiens) (UniProt Q13554); assay: Inhibition of CaMKIIbeta (unknown origin) at 0.1 uM relative to control
[6] = molecular target: Calcium/calmodulin-dependent protein kinase type IV (Homo sapiens) (UniProt Q16566); assay: Inhibition of CamKIV (unknown origin) at 0.1 uM relative to control
[7] = molecular target: Mitogen-activated protein kinase kinase kinase 8 (Homo sapiens) (UniProt P41279); assay: Inhibition of Cot (unknown origin) at 0.1 uM relative to control
Sequence of Mitogen-activated protein kinase kinase kinase 8 (Homo sapiens) (P41279 whole entry): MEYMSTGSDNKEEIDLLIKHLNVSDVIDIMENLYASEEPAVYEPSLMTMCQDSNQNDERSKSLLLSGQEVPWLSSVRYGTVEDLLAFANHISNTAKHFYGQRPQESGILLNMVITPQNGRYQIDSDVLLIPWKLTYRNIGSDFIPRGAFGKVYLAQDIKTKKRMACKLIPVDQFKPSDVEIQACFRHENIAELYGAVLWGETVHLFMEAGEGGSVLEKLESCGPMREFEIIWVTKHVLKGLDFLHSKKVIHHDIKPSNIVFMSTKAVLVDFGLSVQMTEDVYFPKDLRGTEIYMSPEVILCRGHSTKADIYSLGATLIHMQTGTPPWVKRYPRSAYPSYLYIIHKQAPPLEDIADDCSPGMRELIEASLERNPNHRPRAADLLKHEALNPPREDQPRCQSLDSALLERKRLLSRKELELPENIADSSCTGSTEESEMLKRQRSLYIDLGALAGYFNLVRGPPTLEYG

[8] = molecular target: Dual specificity tyrosine-phosphorylation-regulated kinase 1B (Homo sapiens) (UniProt Q9Y463); assay: Inhibition of DYRK1B (unknown origin) at 0.1 uM relative to control
[9] = molecular target: Dual specificity tyrosine-phosphorylation-regulated kinase 4 (Homo sapiens) (UniProt Q9NR20); assay: Inhibition of DYRK4 (unknown origin) at 0.1 uM relative to control
[10] = molecular target: Epidermal growth factor receptor (Homo sapiens) (UniProt P00533); assay: Inhibition of EGFR (unknown origin) at 0.1 uM relative to control
Sequence of Epidermal growth factor receptor (Homo sapiens) (P00533 whole entry): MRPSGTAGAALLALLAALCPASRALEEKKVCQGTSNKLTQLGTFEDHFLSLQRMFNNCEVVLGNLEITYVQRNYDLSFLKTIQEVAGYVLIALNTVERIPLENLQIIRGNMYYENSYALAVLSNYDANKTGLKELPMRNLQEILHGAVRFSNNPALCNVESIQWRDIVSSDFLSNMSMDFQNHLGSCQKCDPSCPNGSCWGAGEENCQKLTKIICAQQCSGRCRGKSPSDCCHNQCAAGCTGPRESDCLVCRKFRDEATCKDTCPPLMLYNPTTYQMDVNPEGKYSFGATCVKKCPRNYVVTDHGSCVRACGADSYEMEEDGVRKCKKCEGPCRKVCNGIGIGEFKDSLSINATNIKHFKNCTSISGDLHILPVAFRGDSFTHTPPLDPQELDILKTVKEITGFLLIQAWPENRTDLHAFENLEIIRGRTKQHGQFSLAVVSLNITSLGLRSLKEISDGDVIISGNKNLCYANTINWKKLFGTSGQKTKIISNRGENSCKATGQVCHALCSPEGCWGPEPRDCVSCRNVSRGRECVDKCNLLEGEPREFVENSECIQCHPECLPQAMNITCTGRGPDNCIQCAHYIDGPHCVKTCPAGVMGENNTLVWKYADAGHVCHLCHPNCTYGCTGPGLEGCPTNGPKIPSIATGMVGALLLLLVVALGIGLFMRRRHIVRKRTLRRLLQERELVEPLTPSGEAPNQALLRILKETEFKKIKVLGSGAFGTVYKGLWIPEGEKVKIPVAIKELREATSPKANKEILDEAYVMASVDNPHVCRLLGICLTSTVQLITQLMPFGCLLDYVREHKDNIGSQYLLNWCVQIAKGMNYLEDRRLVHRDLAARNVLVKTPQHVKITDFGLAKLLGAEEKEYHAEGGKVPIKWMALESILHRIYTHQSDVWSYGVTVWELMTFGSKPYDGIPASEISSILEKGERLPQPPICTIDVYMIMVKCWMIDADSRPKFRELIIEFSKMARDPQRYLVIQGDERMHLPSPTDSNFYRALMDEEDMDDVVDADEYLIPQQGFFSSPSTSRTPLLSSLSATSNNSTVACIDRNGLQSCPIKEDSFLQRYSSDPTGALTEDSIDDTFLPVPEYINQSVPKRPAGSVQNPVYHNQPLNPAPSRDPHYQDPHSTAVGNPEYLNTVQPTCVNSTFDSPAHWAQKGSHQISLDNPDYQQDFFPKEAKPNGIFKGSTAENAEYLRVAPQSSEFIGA

[11] = molecular target: Tyrosine-protein kinase Fgr (Homo sapiens) (UniProt P09769); assay: Inhibition of Fgr (unknown origin) at 0.1 uM relative to control
[12] = molecular target: Vascular endothelial growth factor receptor 3 (Homo sapiens) (UniProt P35916); assay: Inhibition of Flt4 (unknown origin) at 0.1 uM relative to control
[13] = molecular target: Tyrosine-protein kinase FRK (Homo sapiens) (UniProt P42685); assay: Inhibition of Frk (unknown origin) at 0.1 uM relative to control
[14] = molecular target: Mitogen-activated protein kinase kinase kinase kinase 2 (Homo sapiens) (UniProt Q12851); assay: Inhibition of GCK (unknown origin) at 0.1 uM relative to control
Sequence of Mitogen-activated protein kinase kinase kinase kinase 2 (Homo sapiens) (Q12851 whole entry): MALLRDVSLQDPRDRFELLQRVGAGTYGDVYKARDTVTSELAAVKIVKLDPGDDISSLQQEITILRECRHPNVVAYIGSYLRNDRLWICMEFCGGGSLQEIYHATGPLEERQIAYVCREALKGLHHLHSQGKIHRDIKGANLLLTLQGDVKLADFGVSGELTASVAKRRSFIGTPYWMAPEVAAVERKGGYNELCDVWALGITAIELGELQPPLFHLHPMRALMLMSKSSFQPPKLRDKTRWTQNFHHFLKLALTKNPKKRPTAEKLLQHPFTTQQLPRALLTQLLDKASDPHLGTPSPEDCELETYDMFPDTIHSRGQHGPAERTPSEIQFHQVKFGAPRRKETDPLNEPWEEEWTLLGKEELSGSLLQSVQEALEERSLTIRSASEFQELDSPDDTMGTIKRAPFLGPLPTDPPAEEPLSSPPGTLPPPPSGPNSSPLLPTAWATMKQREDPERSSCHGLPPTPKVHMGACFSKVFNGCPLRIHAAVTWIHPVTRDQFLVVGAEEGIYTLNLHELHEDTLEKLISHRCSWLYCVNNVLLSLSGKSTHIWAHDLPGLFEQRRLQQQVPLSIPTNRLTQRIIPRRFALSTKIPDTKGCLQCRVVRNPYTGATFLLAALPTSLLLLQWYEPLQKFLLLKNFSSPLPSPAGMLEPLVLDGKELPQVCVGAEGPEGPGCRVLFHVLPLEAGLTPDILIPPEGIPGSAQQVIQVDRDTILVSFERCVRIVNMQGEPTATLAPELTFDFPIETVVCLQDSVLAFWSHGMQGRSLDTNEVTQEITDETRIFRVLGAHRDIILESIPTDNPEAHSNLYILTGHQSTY

[15] = molecular target: Beta-adrenergic receptor kinase 1 (Homo sapiens) (UniProt P25098); assay: Inhibition of GRK2 (unknown origin) at 0.1 uM relative to control
[16] = molecular target: G protein-coupled receptor kinase 3 (Homo sapiens) (UniProt P35626); assay: Inhibition of GRK3 (unknown origin) at 0.1 uM relative to control
[17] = molecular target: G protein-coupled receptor kinase 5 (Homo sapiens) (UniProt P34947); assay: Inhibition of GRK5 (unknown origin) at 0.1 uM relative to control
[18] = molecular target: Interleukin-1 receptor-associated kinase 4 (Homo sapiens) (UniProt Q9NWZ3); assay: Inhibition of IRAK4 (unknown origin) at 0.1 uM relative to control
[19] = molecular target: Mitogen-activated protein kinase 8 (Homo sapiens) (UniProt P45983); assay: Inhibition of JNK1alpha1 (unknown origin) at 0.1 uM relative to control
Sequence of Mitogen-activated protein kinase 8 (Homo sapiens) (P45983 whole entry): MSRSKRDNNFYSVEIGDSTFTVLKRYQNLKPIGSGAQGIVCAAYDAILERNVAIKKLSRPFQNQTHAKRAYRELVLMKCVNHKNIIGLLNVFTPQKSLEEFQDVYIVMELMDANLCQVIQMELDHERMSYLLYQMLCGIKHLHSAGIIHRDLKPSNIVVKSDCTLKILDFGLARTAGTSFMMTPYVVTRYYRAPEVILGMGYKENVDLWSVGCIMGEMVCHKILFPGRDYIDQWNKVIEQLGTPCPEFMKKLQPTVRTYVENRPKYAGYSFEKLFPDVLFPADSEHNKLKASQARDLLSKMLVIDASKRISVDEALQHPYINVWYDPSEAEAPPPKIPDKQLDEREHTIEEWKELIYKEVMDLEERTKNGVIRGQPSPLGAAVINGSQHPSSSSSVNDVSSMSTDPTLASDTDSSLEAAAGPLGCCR

[20] = molecular target: Mitogen-activated protein kinase kinase kinase 9 (Homo sapiens) (UniProt P80192); assay: Inhibition of MLK1 (unknown origin) at 0.1 uM relative to control
Sequence of Mitogen-activated protein kinase kinase kinase 9 (Homo sapiens) (P80192 whole entry, looked up): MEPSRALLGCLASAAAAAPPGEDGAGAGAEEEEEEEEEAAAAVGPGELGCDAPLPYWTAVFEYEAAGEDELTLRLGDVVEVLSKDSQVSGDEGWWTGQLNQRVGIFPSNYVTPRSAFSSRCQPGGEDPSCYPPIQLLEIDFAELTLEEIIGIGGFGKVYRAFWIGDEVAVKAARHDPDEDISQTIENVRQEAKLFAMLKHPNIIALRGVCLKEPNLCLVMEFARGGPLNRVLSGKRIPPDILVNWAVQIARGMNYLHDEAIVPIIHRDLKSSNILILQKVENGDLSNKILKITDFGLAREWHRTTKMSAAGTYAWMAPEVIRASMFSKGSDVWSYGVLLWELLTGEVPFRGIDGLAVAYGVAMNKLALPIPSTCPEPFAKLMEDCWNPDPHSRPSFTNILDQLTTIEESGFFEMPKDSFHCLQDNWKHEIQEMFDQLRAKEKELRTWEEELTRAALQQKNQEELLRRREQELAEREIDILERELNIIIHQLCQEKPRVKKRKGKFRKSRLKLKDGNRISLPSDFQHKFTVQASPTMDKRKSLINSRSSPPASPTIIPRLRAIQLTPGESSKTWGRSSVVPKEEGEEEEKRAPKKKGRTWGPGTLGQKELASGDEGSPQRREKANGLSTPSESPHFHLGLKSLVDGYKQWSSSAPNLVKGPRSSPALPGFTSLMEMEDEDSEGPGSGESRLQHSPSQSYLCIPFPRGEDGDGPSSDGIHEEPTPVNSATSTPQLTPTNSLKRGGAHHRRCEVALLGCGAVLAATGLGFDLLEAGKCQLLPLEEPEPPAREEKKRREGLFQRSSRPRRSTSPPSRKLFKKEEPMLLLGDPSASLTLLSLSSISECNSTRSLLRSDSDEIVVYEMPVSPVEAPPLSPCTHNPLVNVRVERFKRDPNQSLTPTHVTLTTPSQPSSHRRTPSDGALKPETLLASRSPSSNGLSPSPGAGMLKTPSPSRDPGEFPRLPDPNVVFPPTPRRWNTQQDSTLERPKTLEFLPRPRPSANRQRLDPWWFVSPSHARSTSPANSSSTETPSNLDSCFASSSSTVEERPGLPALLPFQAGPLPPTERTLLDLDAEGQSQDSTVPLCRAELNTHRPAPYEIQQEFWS

[21] = molecular target: SRSF protein kinase 3 (Homo sapiens) (UniProt Q9UPE1); assay: Inhibition of MSSK1 (unknown origin) at 0.1 uM relative to control
[22] = molecular target: Phosphatidylinositol 4,5-bisphosphate 3-kinase catalytic subunit delta isoform (Homo sapiens) (UniProt O00329); assay: Inhibition of PI3Kdelta (unknown origin) at 0.1 uM relative to control
[23] = molecular target: Protein kinase C epsilon type (Homo sapiens) (UniProt Q02156); assay: Inhibition of PKCepsilon (unknown origin) at 0.1 uM relative to control
[24] = molecular target: Protein kinase C zeta type (Homo sapiens) (UniProt Q05513); assay: Inhibition of PKCzeta (unknown origin) at 0.1 uM relative to control
[25] = molecular target: cGMP-dependent protein kinase 1 (Homo sapiens) (UniProt Q13976); assay: Inhibition of PKG1alpha (unknown origin) at 0.1 uM relative to control
[26] = molecular target: MAP kinase-activated protein kinase 5 (Homo sapiens) (UniProt Q8IW41); assay: Inhibition of PRAK (unknown origin) at 0.1 uM relative to control
[27] = molecular target: Phosphorylase b kinase gamma catalytic chain, liver/testis isoform (Homo sapiens) (UniProt P15735); assay: Inhibition of PhKgamma2 (unknown origin) at 0.1 uM relative to control
[28] = molecular target: Rho-associated protein kinase 1 (Homo sapiens) (UniProt Q13464); assay: Inhibition of ROCK1 (unknown origin) at 0.1 uM relative to control
[29] = molecular target: Rho-associated protein kinase 2 (Homo sapiens) (UniProt O75116); assay: Inhibition of ROCK2 (unknown origin) at 0.1 uM relative to control
[30] = molecular target: Tyrosine-protein kinase receptor TYRO3 (Homo sapiens) (UniProt Q06418); assay: Inhibition of Rse (unknown origin) at 0.1 uM relative to control
[31] = molecular target: Ribosomal protein S6 kinase alpha-1 (Homo sapiens) (UniProt Q15418); assay: Inhibition of Rsk1 (unknown origin) at 0.1 uM relative to control
[32] = molecular target: SRSF protein kinase 1 (Homo sapiens) (UniProt Q96SB4); assay: Inhibition of SRPK1 (unknown origin) at 0.1 uM relative to control
[33] = molecular target: Testis-specific serine/threonine-protein kinase 1 (Homo sapiens) (UniProt Q9BXA7); assay: Inhibition of TSSK1 (unknown origin) at 0.1 uM relative to control
Sequence of Testis-specific serine/threonine-protein kinase 1 (Homo sapiens) (Q9BXA7 whole entry): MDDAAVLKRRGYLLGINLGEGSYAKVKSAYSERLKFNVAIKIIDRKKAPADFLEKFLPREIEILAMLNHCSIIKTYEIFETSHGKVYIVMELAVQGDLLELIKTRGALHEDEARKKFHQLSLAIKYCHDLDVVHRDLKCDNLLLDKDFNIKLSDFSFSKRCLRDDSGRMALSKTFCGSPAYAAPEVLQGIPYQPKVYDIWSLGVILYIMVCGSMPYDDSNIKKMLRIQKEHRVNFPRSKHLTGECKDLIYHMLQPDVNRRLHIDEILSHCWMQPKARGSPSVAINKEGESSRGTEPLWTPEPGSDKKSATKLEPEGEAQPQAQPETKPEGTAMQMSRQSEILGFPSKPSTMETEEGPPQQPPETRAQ

[34] = molecular target: Serine/threonine-protein kinase Chk2 (Homo sapiens) (UniProt O96017); assay: Inhibition of CHK2 (unknown origin) at 0.1 uM relative to control
[35] = molecular target: Protein kinase C eta type (Homo sapiens) (UniProt P24723); assay: Inhibition of PKCeta (unknown origin) at 0.1 uM relative to control
[36] = molecular target: Cyclin-dependent kinase 7/ cyclin H (Homo sapiens) (UniProt P51946+P50613); assay: Inhibition of CDK7/CyclinH (unknown origin) at 0.1 uM relative to control; type: protein-complex assay
[37] = molecular target: LIM domain kinase 1 (Homo sapiens) (UniProt P53667); assay: Inhibition of LIMK1 (unknown origin) at 0.1 uM relative to control
[38] = molecular target: Serine/threonine-protein kinase NLK (Homo sapiens) (UniProt Q9UBE8); assay: Inhibition of NLK (unknown origin) at 0.1 uM relative to control
[39] = molecular target: Serine/threonine-protein kinase WNK2 (Homo sapiens) (UniProt Q9Y3S1); assay: Inhibition of WNK2 (unknown origin) at 0.1 uM relative to control

In the case of `COCCNc1nc2ccc(C#CC3(O)CCCCC3)cc2n1-c1ccnc(N)n1`, the inhibition [1] is reported as 3.6%, the inhibition [2] is reported as 1.9% and the inhibition [3] is reported as 8.8%. It also gave an inhibition [4] of 7.3%, an inhibition [5] of 11.7% and an inhibition [6] of -6.6%. The inhibition [7] was 2.8%, the inhibition [8] was 0.5% and the inhibition [9] was -3%. It also gave an inhibition [10] of 2.4%, an inhibition [11] of 3.6% and an inhibition [12] of 1%. For the same compound, the inhibition [13] was 13.1%, the inhibition [14] was 1% and the inhibition [15] was -9.6%. For the same compound, the inhibition [16] was 1.1%, the inhibition [17] was 2.5% and the inhibition [18] was 4.3%. It also gave an inhibition [19] of 4.1%, an inhibition [20] of 15.4% and an inhibition [21] of 9.8%. For the same compound, the inhibition [22] was -4.8%, the inhibition [23] was 8.3% and the inhibition [24] was 22.8%. The inhibition [25] was 9.3%, the inhibition [26] was 5% and the inhibition [27] was 17.3%. For the same compound, the inhibition [28] was 0.8%, the inhibition [29] was 0.5% and the inhibition [30] was 1.4%. The inhibition [31] was 6.7%, the inhibition [32] was 5.4% and the inhibition [33] was 6.2%.

With `CN1CCc2cc(-c3cnc4[nH]cc(C(=O)c5ccccc5Cl)c4c3)ccc2C1` the inhibition [34] was 4.3%, the inhibition [4] was 44% and the inhibition [7] was 19.6%. It also gave an inhibition [10] of 38%, an inhibition [14] of 69.8% and an inhibition [19] of 51%. For the same compound, the inhibition [20] was 11.4%, the inhibition [35] was 17% and the inhibition [33] was 28%. For the same compound, the inhibition [36] was 31%, the inhibition [37] was 42.4% and the inhibition [38] was 5%. It also gave an inhibition [39] of 0%.
